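Results reflect a 48-hour exposure of cells in 96-well plates to compound at five concentrations. Here, GI50 denotes the concentration required for 50% inhibition of growth.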 Calls of active or inactive are those of the source. Cut-off read from the data, not from the text of the source: active = GI50 up to about 1.1 µM and inactive = higher. Where a SMILES comes first, the peptide text is derived from it. [ ]: non-standard residue; d: D form. The star is where a group is joined. ξ: configuration not given here. ξNMe2Val = CC(C)C(C(=O)*)N(C)C; NMeV = CN[CH](C(=O)O)C(C)C; NHBn = c1ccc(CN*)cc1
Legend:
Assay in all cases: DTP human tumour cell line panel, 48 h
OVCAR-5 = test system: OVCAR-5
OVCAR-3 = test system: OVCAR-3
SK-MEL-5 = test system: SK-MEL-5
OVCAR-4 = test system: OVCAR-4
COLO 205 = test system: COLO 205
SNB-19 = test system: SNB-19
SK-MEL-2 = test system: SK-MEL-2
SW-620 = test system: SW-620
A498 = test system: A498
EKVX = test system: EKVX
MDA-MB-435 = test system: MDA-MB-435
Hs-578T = test system: Hs-578T
HOP-92 = test system: HOP-92
MDA-N = test system: MDA-N
SR = test system: SR
TK-10 = test system: TK-10
U-251 = test system: U-251
786-0 = test system: 786-0
SNB-75 = test system: SNB-75
MCF7 = test system: MCF7

Row | Structure (SMILES) | GI50 (OVCAR-5) | GI50 (OVCAR-3) | GI50 (SK-MEL-5) | GI50 (OVCAR-4) | GI50 (COLO 205) | GI50 (SNB-19) | GI50 (SK-MEL-2) | GI50 (SW-620) | GI50 (A498) | GI50 (EKVX) | GI50 (MDA-MB-435) | GI50 (Hs-578T) | GI50 (HOP-92) | GI50 (MDA-N) | GI50 (SR) | GI50 (TK-10) | GI50 (U-251) | GI50 (786-0) | GI50 (SNB-75) | GI50 (MCF7)
1 | COC(=O)[C@@H]1CN(C(=O)CCc2ccccc2)C(=O)N1 | > 100 µM (inactive) | > 100 µM (inactive) | > 100 µM (inactive) | > 100 µM (inactive) | > 100 µM (inactive) | > 100 µM (inactive) | > 100 µM (inactive) | > 100 µM (inactive) | > 100 µM (inactive) | > 100 µM (inactive) | > 100 µM (inactive) | > 100 µM (inactive) | > 100 µM (inactive) | > 100 µM (inactive) | > 100 µM (inactive) | > 100 µM (inactive) | > 100 µM (inactive) | > 100 µM (inactive) | – | –
2 | Clc1ncnc2c1nc(C#Cc1ccccc1)n2C1CCCCO1 (stereo not drawn) | 2.42 µM (inactive) | 1.37 µM (inactive) | 2.21 µM (inactive) | 1.87 µM (inactive) | 1.62 µM (inactive) | 2.53 µM (inactive) | 2.47 µM (inactive) | 1.86 µM (inactive) | 2.63 µM (inactive) | 1.95 µM (inactive) | 2.35 µM (inactive) | 3.95 µM (inactive) | 1.8 µM (inactive) | 1.94 µM (inactive) | – | 2.63 µM (inactive) | 2.08 µM (inactive) | 1.42 µM (inactive) | 2.6 µM (inactive) | 1.37 µM (inactive)
3 | COC1CC(OC(=O)c2ccccc2)C(OC(=O)c2ccccc2)C(C)O1 (stereo not drawn) | > 100 µM (inactive) | > 100 µM (inactive) | > 100 µM (inactive) | – | > 100 µM (inactive) | > 100 µM (inactive) | > 100 µM (inactive) | > 100 µM (inactive) | > 100 µM (inactive) | > 100 µM (inactive) | > 100 µM (inactive) | 59.8 µM (inactive) | 19.3 µM (inactive) | > 100 µM (inactive) | > 100 µM (inactive) | > 100 µM (inactive) | > 100 µM (inactive) | > 100 µM (inactive) | – | > 100 µM (inactive)
4 | CC(C)C(NC(=O)C(C(C)C)N(C)C)C(=O)N(C)C(C(=O)N1CCCC1C(=O)N1CCCC1C(=O)NCc1ccccc1)C(C)C (stereo not drawn) (ξNMe2Val-V[NMeV]PP-NHBn; configuration not given here) | 0.0675 µM (active) | – | < 0.0001 µM (active) | 15.7 µM (inactive) | < 0.0001 µM (active) | < 0.01 µM (active) | < 0.0001 µM (active) | < 0.0001 µM (active) | < 0.01 µM (active) | 0.0187 µM (active) | < 0.0001 µM (active) | < 0.0001 µM (active) | < 0.0001 µM (active) | < 0.0001 µM (active) | < 0.0001 µM (active) | – | < 0.0001 µM (active) | < 0.0001 µM (active) | 0.172 µM (active) | –
5 | O=C1C=C(Nc2cccnc2)c2ccccc2/C1=N/O | > 100 µM (inactive) | 1.81 µM (inactive) | 4.67 µM (inactive) | 19.6 µM (inactive) | 19.4 µM (inactive) | 1.38 µM (inactive) | 31.3 µM (inactive) | 18.3 µM (inactive) | 41.3 µM (inactive) | 14.7 µM (inactive) | 12.7 µM (inactive) | 33.4 µM (inactive) | 21.8 µM (inactive) | 12.6 µM (inactive) | – | > 100 µM (inactive) | 26.3 µM (inactive) | 57.7 µM (inactive) | 5.69 µM (inactive) | 21.6 µM (inactive)
6 | Cc1c2c(c(O)c3c(O)cccc13)C(=O)C1(O)C(=O)C(C(=O)NCNc3ccc(C(N)=O)cn3)=C(O)C(N(C)C)C1C2 (stereo not drawn) | 5.02 µM (inactive) | 2.49 µM (inactive) | 2.16 µM (inactive) | 1.93 µM (inactive) | 6.28 µM (inactive) | – | 6.95 µM (inactive) | 3.52 µM (inactive) | 2.51 µM (inactive) | 4.33 µM (inactive) | 3.69 µM (inactive) | – | 2.01 µM (inactive) | 4.49 µM (inactive) | 3.05 µM (inactive) | 5.15 µM (inactive) | 2.6 µM (inactive) | 5.52 µM (inactive) | 2.84 µM (inactive) | 9.27 µM (inactive)
7 | O=P1(Oc2ccccc2)N=P(c2ccccc2)(c2ccccc2)C=C(c2ccc(Cl)cc2)N1 (stereo not drawn) | 13.1 µM (inactive) | 4.51 µM (inactive) | 2.25 µM (inactive) | – | 5.15 µM (inactive) | 15.3 µM (inactive) | 13.5 µM (inactive) | 12.3 µM (inactive) | – | 7.89 µM (inactive) | 4.44 µM (inactive) | 16.7 µM (inactive) | 9.18 µM (inactive) | 8.87 µM (inactive) | 3.6 µM (inactive) | 13.1 µM (inactive) | 5.51 µM (inactive) | 13.4 µM (inactive) | – | 2.45 µM (inactive)
8 | Clc1cccc(Cl)c1C1SCc2nc3cc4ccccc4cc3n21 (stereo not drawn) | > 100 µM (inactive) | > 100 µM (inactive) | > 100 µM (inactive) | > 100 µM (inactive) | > 100 µM (inactive) | > 100 µM (inactive) | > 100 µM (inactive) | > 100 µM (inactive) | – | > 100 µM (inactive) | > 100 µM (inactive) | > 100 µM (inactive) | – | > 100 µM (inactive) | – | > 100 µM (inactive) | > 100 µM (inactive) | > 100 µM (inactive) | > 100 µM (inactive) | > 100 µM (inactive)
9 | Cc1n(Cc2ccccc2)c2c([n+]1C)C(=O)c1ccccc1C2=O | 0.167 µM (active) | < 0.0136 µM (active) | 0.0211 µM (active) | 0.0401 µM (active) | < 0.01 µM (active) | 0.0581 µM (active) | 0.132 µM (active) | 0.0455 µM (active) | 0.129 µM (active) | 0.181 µM (active) | 0.183 µM (active) | 0.415 µM (active) | 0.369 µM (active) | 0.173 µM (active) | – | 0.265 µM (active) | 0.0324 µM (active) | 0.0845 µM (active) | 0.0736 µM (active) | 0.0158 µM (active)
10 | COC(=O)c1ccccc1C1CN=NC12Cc1c(ccc(C)c1C)C2=O (stereo not drawn) | > 100 µM (inactive) | 45.7 µM (inactive) | > 100 µM (inactive) | 42.3 µM (inactive) | > 100 µM (inactive) | 85.9 µM (inactive) | > 100 µM (inactive) | > 100 µM (inactive) | > 100 µM (inactive) | > 100 µM (inactive) | > 100 µM (inactive) | 80.9 µM (inactive) | 21.3 µM (inactive) | > 100 µM (inactive) | – | > 100 µM (inactive) | 48.3 µM (inactive) | 38.4 µM (inactive) | 22 µM (inactive) | > 100 µM (inactive)
11 | CC(=O)Oc1cc(S(=O)(=O)Nc2n[nH]c(Nc3ccc(C)cc3)n2)c(S)cc1Cl | > 100 µM (inactive) | > 100 µM (inactive) | > 100 µM (inactive) | > 100 µM (inactive) | > 100 µM (inactive) | > 100 µM (inactive) | > 100 µM (inactive) | > 100 µM (inactive) | > 100 µM (inactive) | > 100 µM (inactive) | > 100 µM (inactive) | 79.3 µM (inactive) | > 100 µM (inactive) | > 100 µM (inactive) | 66.7 µM (inactive) | > 100 µM (inactive) | > 100 µM (inactive) | > 100 µM (inactive) | – | –
12 | O=S(=O)(O)c1ccc2c(/N=N/c3cccc4ccccc34)c(O)ccc2c1 | > 100 µM (inactive) | > 100 µM (inactive) | > 100 µM (inactive) | > 100 µM (inactive) | > 100 µM (inactive) | 74.6 µM (inactive) | > 100 µM (inactive) | > 100 µM (inactive) | > 100 µM (inactive) | > 100 µM (inactive) | > 100 µM (inactive) | > 100 µM (inactive) | > 100 µM (inactive) | > 100 µM (inactive) | > 100 µM (inactive) | > 100 µM (inactive) | 87.1 µM (inactive) | > 100 µM (inactive) | > 100 µM (inactive) | –
13 | COC(=O)c1ccccc1C1CN=NC12Cc1c(C)ccc(C)c1C2=O (stereo not drawn) | > 100 µM (inactive) | > 100 µM (inactive) | > 100 µM (inactive) | > 100 µM (inactive) | > 100 µM (inactive) | > 100 µM (inactive) | > 100 µM (inactive) | > 100 µM (inactive) | > 100 µM (inactive) | > 100 µM (inactive) | > 100 µM (inactive) | > 100 µM (inactive) | 23.3 µM (inactive) | > 100 µM (inactive) | – | > 100 µM (inactive) | > 100 µM (inactive) | > 100 µM (inactive) | > 100 µM (inactive) | > 100 µM (inactive)
14 | CO/C(=N\N=C\c1ccccc1F)c1ccncc1 | > 10 µM (inactive) | > 10 µM (inactive) | – | > 10 µM (inactive) | > 10 µM (inactive) | > 10 µM (inactive) | > 10 µM (inactive) | > 10 µM (inactive) | – | > 10 µM (inactive) | > 10 µM (inactive) | – | > 10 µM (inactive) | > 10 µM (inactive) | > 10 µM (inactive) | > 10 µM (inactive) | > 10 µM (inactive) | > 10 µM (inactive) | – | > 10 µM (inactive)
15 | O=C1N=C(S)NNC12c1ccccc1-c1ccccc12 | – | – | 5.22 µM (inactive) | > 10 µM (inactive) | > 10 µM (inactive) | – | – | > 10 µM (inactive) | 3.31 µM (inactive) | 2.99 µM (inactive) | – | 6.18 µM (inactive) | > 10 µM (inactive) | > 10 µM (inactive) | > 10 µM (inactive) | > 10 µM (inactive) | > 10 µM (inactive) | > 10 µM (inactive) | > 10 µM (inactive) | 8.71 µM (inactive)

From ChEMBL document CHEMBL1201862, “PubChem BioAssay data set” (2004)
